{"source": "patent US20040002842A1", "about": "“Methods and systems for analyzing complex biological systems” (priority 2001, published 2004)", "key": {"[1]": {"tested_on": "Arabidopsis thaliana plants", "assay": "SOA1 phenotypic analysis of herbicide-treated plants (incl. MIC/Tmic)", "format": "in vivo", "details": "herbicide-treated plants"}, "[2]": {"tested_on": "Arabidopsis thaliana plants", "assay": "SOA1 gene expression analysis (60mer microarray, 6200 genes) of herbicide-treated tissue", "details": "SOA1 profiles"}}}
{"smiles": "COC(=O)c1cc(Oc2ccc(Cl)cc2Cl)ccc1[N+](=O)[O-]", "note": "[Bifenox]", "values": [{"measurement": "characteristic symptoms (morphological phenotype)", "setting": "[1]", "result": "Necrotic leaf flecks"}, {"measurement": "gene expression profile correlation to acifluorfen (r)", "setting": "[2]", "result": 0.151}]}
